Reference: PubChem BioAssay (NCI)
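1) Cells in 96-well plates. 2) Compound, 48 h, 5 concentrations. 3) Linear interpolation between surrounding doses. 4) Unreached endpoint = highest concentration. GI50 = concentration required for 50% inhibition of growth. TGI marks complete inhibition of growth.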

Columns and labels:
Test in all cases: NCI anticancer screen, dose series, 48 h
A498 renal = system: A498 renal
CCRF-CEM leukemia = system: CCRF-CEM leukemia
HCC-2998 colon = system: HCC-2998 colon
MALME-3M melanoma = system: MALME-3M melanoma
MOLT-4 leukemia = system: MOLT-4 leukemia
NCI-H23 lung = system: NCI-H23 lung
OVCAR-8 ovarian = system: OVCAR-8 ovarian
SK-OV-3 ovarian = system: SK-OV-3 ovarian
SNB-75 CNS = system: SNB-75 CNS
UACC-62 melanoma = system: UACC-62 melanoma

Compound | GI50 (A498 renal) [µM] | TGI (A498 renal) [µM] | GI50 (CCRF-CEM leukemia) [µM] | TGI (CCRF-CEM leukemia) [µM] | GI50 (HCC-2998 colon) [µM] | TGI (HCC-2998 colon) [µM] | GI50 (MALME-3M melanoma) [µM] | TGI (MALME-3M melanoma) [µM] | GI50 (MOLT-4 leukemia) [µM] | TGI (MOLT-4 leukemia) [µM] | GI50 (NCI-H23 lung) [µM] | TGI (NCI-H23 lung) [µM] | GI50 (OVCAR-8 ovarian) [µM] | TGI (OVCAR-8 ovarian) [µM] | GI50 (SK-OV-3 ovarian) [µM] | TGI (SK-OV-3 ovarian) [µM] | GI50 (SNB-75 CNS) [µM] | TGI (SNB-75 CNS) [µM] | GI50 (UACC-62 melanoma) [µM] | TGI (UACC-62 melanoma) [µM]
Cc1nn(-c2nc3ccccc3[nH]2)c2c1C(c1ccc3c(c1)OCO3)CC(=O)N2 (configuration not stated) | 1.61 | 4.42 | 1.94 | > 24.7 | 3.7 | > 24.3 | 2.12 | 6.04 | 0.0422 | 0.214 | 2.13 | 4.72 | 3.51 | > 100 | 2.63 | 5.77 | 2.69 | 8.09 | 1.66 | 3.13
CC1(C)C2C/C(=C\c3ccccc3)C(=O)C1C2 (configuration not stated) |  | > 100 |  | > 100 |  | > 100 |  | > 100 |  | > 100 |  | > 100 |  | > 100 |  | > 100 |  | 97.5 |  | > 100
C/C(=C\CC[C@]1(C)OC(C)(C)OC1CC/C(C)=C/CO[Si](c1ccccc1)(c1ccccc1)C(C)(C)C)CC/C=C/CO[Si](C)(C)C(C)(C)C (some centres not stated) |  | > 100 |  | > 100 |  | > 100 |  | > 100 |  | > 100 |  | > 100 |  | > 100 |  | > 100 |  | > 100 |  | > 100
O=C(N/N=C\c1ccc(N(CCCl)CCCl)cc1Cl)c1cccnc1 | 0.0664 | 0.179 | 14.5 | > 90.6 | 17.2 | 68.1 | 21.4 | 64.2 | 10.5 | 42.7 | 9.59 | 54.9 | 21.7 | > 88.8 | 26.6 | > 100 | 20.1 | 73.7 | 0.513 | 3.92
CC12CC3CC(C1)CC(N=[N+]=[N-])(C3)C2 |  | > 100 |  | > 100 |  | > 100 |  | > 100 |  | > 100 |  | > 100 |  | > 100 |  | > 100 |  | > 100 |  | > 100
S=C(Nc1ccccc1)N(Cc1ccccc1)c1ccccc1 |  | 67.2 |  | > 100 |  | > 100 |  | 37.2 |  | > 100 |  | > 100 |  |  |  | > 100 |  | > 100 |  | 70.7
Cn1c(=O)c(C(=O)NC(=O)OCc2ccccc2)cn(CCSCCOC(=O)NCCCCCCNC(=O)OCCSCCn2cc(C(=O)NC(=O)OCc3ccccc3)c(=O)n(C)c2=O)c1=O |  | > 100 |  | > 100 |  | > 100 |  | > 100 |  | > 100 |  | > 100 |  | > 100 |  |  |  | 48.9 |  | > 100
C[CH2][Sn]([CH2]C)([O]C(=O)c1cccc(F)c1)[O][Sn]([CH2]C)([CH2]C)[O]C(=O)c1cccc(F)c1 | 16.5 | 30.2 | 4.28 | 34.7 | 76.1 | > 100 | 14.1 | 27.3 | 31.9 | > 100 | 16.6 | 30.8 | 17.5 | 32.3 | > 100 | > 100 | 16.9 | 31.9 | 18.4 | 32.7
COc1ccc2c(c1)OC(N)=C(C#N)C2c1ccc(F)cc1 (configuration not stated) | 2.81 | 63.4 | 2.31 | > 100 | 6.44 | > 100 | 12.9 | 77.9 | 1.32 | > 100 | 4.03 | > 100 | 4.49 | > 100 | 2.94 | 66.3 | 1.4 | 13.3 | 0.571 | > 100
O=C(CN1C(=O)c2ccccc2C1=O)C(O)CN1C(=O)c2ccccc2C1=O (configuration not stated) |  | > 100 |  |  |  | > 100 |  |  |  | > 100 |  | > 100 |  | > 100 |  | > 100 |  | 39.8 |  | > 100
COc1cc(/C=C2/C(=O)NC(Cc3cc(OC)c(OC)c(C)c3OC)C(=O)N2Cc2ccccc2)c(OC)c(C)c1OC (configuration not stated) |  | > 100 |  | > 100 |  | > 100 |  | > 100 |  | 70.5 |  | > 100 |  | > 100 |  | > 100 |  | > 100 |  | > 100
N#C[S-].[Au+].c1ccc(CN2[CH-]N(Cc3ccccc3)C(c3ccccc3)=C2c2ccccc2)cc1 | 0.251 | 0.822 |  |  |  |  | 0.284 | 1.15 |  |  |  |  |  |  | 0.391 | 3.63 | 0.385 | 2.65 |  | 
CN(C)CCNC(=O)c1cc2c3ccccc3[nH]c2c2ncccc12 | 7.82 | 21.4 | 3.46 | 15.8 |  |  | 10.7 | 26.5 | 3.46 | 16.5 | 11.6 | 32.6 | 6.11 | 40.9 | 23.5 | > 100 | 5.44 | 21.4 | 13.4 | 28
C/C=C/C=C\C1OC(O)([C@H](CC)C(=O)NC/C=C/C=C(\C)[C@H](OC)C(C)C2OC(\C=C/C=C/C=C(\C)C(=O)c3c(O)ccn(C)c3=O)[C@H](O)[C@@H]2O)C(O)C(O)C1(C)C (some centres not stated) |  | > 100 |  | > 100 |  | > 100 |  |  |  | > 100 |  | > 100 |  | > 100 |  | > 100 |  | > 100 |  | > 100
Cc1ccc(/C=C2\CCCC\C2=N\O)cc1 |  | > 100 |  | > 100 |  | > 100 |  |  |  |  |  | > 100 |  | > 100 |  | > 100 |  | 81.3 |  | > 100
COC(=O)c1cc2oc(/C=C3\SC(=S)N(NC(C)=O)C3=O)cc2n1Cc1ccccc1 | 8.07 | 16.8 |  |  |  |  |  |  | 1.97 | > 50 | 7.12 | 16.8 | 2.68 | 19.4 | 6.33 | 15.5 | 7.67 | 25.4 | 8.91 | 16.6
CC1=C(C(=O)Nc2ccc(F)c(Cl)c2)C(c2cccc(Oc3ccccc3)c2)NC(=O)N1 (configuration not stated) | 10.5 | 23.4 | 10.4 | 26.4 | 14.6 | 27.8 |  |  |  |  | 15.4 | 28.8 | 18 | 43.7 | 18 | 32.7 | 7.53 | 20.4 | 12.4 | 24.8
O=C(NCP(=O)(O)O)c1cccnc1 |  | > 100 |  | > 100 |  |  |  |  |  | > 100 |  | > 100 |  | > 100 |  | > 100 |  | > 100 |  | > 100
C/C(=N\O)C(CN1CCCCC1)C(c1ccccc1)c1c(O)c2ccccc2oc1=O (configuration not stated) |  | > 100 |  | > 10 |  | > 100 |  | > 100 |  |  |  | > 100 |  | > 100 |  | > 100 |  | > 100 |  | > 100
O=C1/C(=C/c2ccc(Cl)cc2)COc2ccc(O)c(O)c21 | 2.95 | 9.19 |  |  | 1.51 | 2.96 | 1.47 | 3.47 | 0.618 | > 100 | 1.71 | 4.09 | 1.11 | 12.8 | 2.49 | > 100 | 1.34 | 3.65 | 1.27 | 2.63
CC(=O)c1c[nH]cc1CO |  | > 10 |  | > 10 |  | > 10 |  | > 10 |  | > 10 |  | > 10 |  | > 10 |  | > 10 |  | > 10 |  | 
CN1CCn2c(c(Sc3ccc(C(=O)NO)cc3)c3ccccc32)C1=O | 0.151 | 1.8 | 1.23 | > 27.8 | 1.94 | 3.76 |  |  | 2.87 | > 33.8 | 1.35 | 4.36 | 1.92 | 6.71 | 2.11 | 4.8 | 1.27 | 2.99 | 1.44 | 3.24
COc1cc(-c2oc3c(OC)c(O)c(OC)c(O)c3c(=O)c2OC)ccc1O |  | > 100 |  | > 100 |  | > 100 |  | > 100 |  | > 100 |  | > 100 |  | > 100 |  | 54.6 |  |  |  | > 100
COc1cc([C@@H]2OC(=O)C3C2C(=O)O[C@H]3c2cc(OC)c(OC)c(OC)c2)cc(OC)c1OC (some centres not stated) |  | > 100 |  | > 100 |  | > 100 |  |  |  | > 100 |  | > 100 |  | > 100 |  | > 100 |  | > 100 |  | > 100
O=C1CCCC1NC(=O)C(F)(F)F (configuration not stated) |  | > 100 |  | > 100 |  |  |  | > 100 |  | > 100 |  | > 100 |  | > 100 |  | > 100 |  | > 100 |  | > 100
CC1=NN(C(=O)c2ccc(Cl)cc2)C(=O)/C1=C/c1ccc(O)cc1 |  | > 100 |  | > 100 |  | > 100 |  | > 100 |  | > 100 |  | > 100 |  | > 100 |  | > 100 |  |  |  | > 100
